Results reported in PubChem BioAssay AID1259407 (Chemical Carcinogenesis Research Information System (CCRIS), 2018).
Activity calls are given as the source filed them. The rule behind the calls is not given here.

System: CCRIS mutagenicity, Ames/micronucleus/aberration tests
Test: CCRIS mutagenicity studies
[1] = Test System: AMES SALMONELLA TYPHIMURIUM, Strain/Indicator: TA98, Metabolic Activation: HAMSTER, LIVER, S-9, AROCLOR 1254 (10%), Method: PREINCUBATION
[2] = Test System: AMES SALMONELLA TYPHIMURIUM, Strain/Indicator: TA98, Metabolic Activation: NONE, Method: PREINCUBATION
[3] = Test System: AMES SALMONELLA TYPHIMURIUM, Strain/Indicator: TA98, Metabolic Activation: RAT, LIVER, S-9, AROCLOR 1254 (10%), Method: PREINCUBATION
[4] = Test System: AMES SALMONELLA TYPHIMURIUM, Strain/Indicator: TA100, Metabolic Activation: HAMSTER, LIVER, S-9, AROCLOR 1254 (10%), Method: PREINCUBATION
[5] = Test System: AMES SALMONELLA TYPHIMURIUM, Strain/Indicator: TA100, Metabolic Activation: NONE, Method: PREINCUBATION
[6] = Test System: AMES SALMONELLA TYPHIMURIUM, Strain/Indicator: TA100, Metabolic Activation: RAT, LIVER, S-9, AROCLOR 1254 (10%), Method: PREINCUBATION
[7] = Test System: AMES SALMONELLA TYPHIMURIUM, Strain/Indicator: TA1535, Metabolic Activation: HAMSTER, LIVER, S-9, AROCLOR 1254 (10%), Method: PREINCUBATION
[8] = Test System: AMES SALMONELLA TYPHIMURIUM, Strain/Indicator: TA1535, Metabolic Activation: NONE, Method: PREINCUBATION
[9] = Test System: AMES SALMONELLA TYPHIMURIUM, Strain/Indicator: TA1535, Metabolic Activation: RAT, LIVER, S-9, AROCLOR 1254 (10%), Method: PREINCUBATION

## Nc1c(Cl)cc(Cl)cc1Cl
End Point: IN VITRO CHROMOSOMAL ABERRATIONS, Test System: CHL CELLS, Metabolic Activation: NONE
  mutagenic call: inactive; negative
End Point: IN VITRO CHROMOSOMAL ABERRATIONS, Test System: CHL CELLS, Metabolic Activation: RAT, LIVER, S-9, SODIUM PHENOBARBITAL AND 5,6-BENZOFLAVONE
  mutagenic call: inactive; negative
Test System: AMES SALMONELLA TYPHIMURIUM, Strain/Indicator: TA97, Metabolic Activation: HAMSTER, LIVER, S-9, AROCLOR 1254 (10%), Method: PREINCUBATION
  mutagenic call: inactive; negative
Test System: AMES SALMONELLA TYPHIMURIUM, Strain/Indicator: TA97, Metabolic Activation: HAMSTER, LIVER, S-9, AROCLOR 1254 (30%), Method: PREINCUBATION
  mutagenic call: inactive; negative
Test System: AMES SALMONELLA TYPHIMURIUM, Strain/Indicator: TA97, Metabolic Activation: NONE, Method: PREINCUBATION
  mutagenic call: inactive; negative
Test System: AMES SALMONELLA TYPHIMURIUM, Strain/Indicator: TA97, Metabolic Activation: RAT, LIVER, S-9, AROCLOR 1254 (10%), Method: PREINCUBATION
  mutagenic call: inactive; negative
Test System: AMES SALMONELLA TYPHIMURIUM, Strain/Indicator: TA97, Metabolic Activation: RAT, LIVER, S-9, AROCLOR 1254 (30%), Method: PREINCUBATION
  mutagenic call: inactive; negative
[1]
  mutagenic call: inactive; negative
Test System: AMES SALMONELLA TYPHIMURIUM, Strain/Indicator: TA98, Metabolic Activation: HAMSTER, LIVER, S-9, AROCLOR 1254 (30%), Method: PREINCUBATION
  mutagenic call: inactive; negative
[2]
  mutagenic call: inactive; negative
[3]
  mutagenic call: inactive; negative
Test System: AMES SALMONELLA TYPHIMURIUM, Strain/Indicator: TA98, Metabolic Activation: RAT, LIVER, S-9, AROCLOR 1254 (30%), Method: PREINCUBATION
  mutagenic call: inactive; negative
Test System: AMES SALMONELLA TYPHIMURIUM, Strain/Indicator: TA100, Metabolic Activation: HAMSTER, LIVER, S-9, AROCLOR 1254 (5%), Method: PREINCUBATION
  mutagenic call: inactive; negative
[4]
  mutagenic call: inactive; negative
Test System: AMES SALMONELLA TYPHIMURIUM, Strain/Indicator: TA100, Metabolic Activation: HAMSTER, LIVER, S-9, AROCLOR 1254 (30%), Method: PREINCUBATION
  mutagenic call: inactive; negative
[5]
  mutagenic call: inactive; negative
Test System: AMES SALMONELLA TYPHIMURIUM, Strain/Indicator: TA100, Metabolic Activation: RAT, LIVER, S-9, AROCLOR 1254 (5%), Method: PREINCUBATION
  mutagenic call: inactive; negative
[6]
  mutagenic call: inactive; negative
Test System: AMES SALMONELLA TYPHIMURIUM, Strain/Indicator: TA100, Metabolic Activation: RAT, LIVER, S-9, AROCLOR 1254 (30%), Method: PREINCUBATION
  mutagenic call: inactive; negative
[7]
  mutagenic call: inactive; negative
Test System: AMES SALMONELLA TYPHIMURIUM, Strain/Indicator: TA1535, Metabolic Activation: HAMSTER, LIVER, S-9, AROCLOR 1254 (30%), Method: PREINCUBATION
  mutagenic call: inactive; negative
[8]
  mutagenic call: inactive; negative
[9]
  mutagenic call: inactive; negative
Test System: AMES SALMONELLA TYPHIMURIUM, Strain/Indicator: TA1535, Metabolic Activation: RAT, LIVER, S-9, AROCLOR 1254 (30%), Method: PREINCUBATION
  mutagenic call: inactive; negative
Test System: UDS RODENT HEPATOCYTES, Strain/Indicator: THY INCORP (NON-S-PHASE), Metabolic Activation: NONE, Method: AUTORADIOGRAPHY
  mutagenic call: inactive; negative

## Oc1c(Br)cc(Br)cc1Br
[1]
  mutagenic call: inactive; negative
Test System: AMES SALMONELLA TYPHIMURIUM, Strain/Indicator: TA98, Metabolic Activation: HAMSTER, LIVER, S-9, AROCLOR 1254, Method: STANDARD PLATE
  mutagenic call: inactive; negative
[2]
  mutagenic call: inactive; negative
Test System: AMES SALMONELLA TYPHIMURIUM, Strain/Indicator: TA98, Metabolic Activation: NONE, Method: STANDARD PLATE
  mutagenic call: inactive; negative
[3]
  mutagenic call: inactive; negative
Test System: AMES SALMONELLA TYPHIMURIUM, Strain/Indicator: TA98, Metabolic Activation: RAT, LIVER, S-9, AROCLOR 1254, Method: STANDARD PLATE
  mutagenic call: inactive; negative
[4]
  mutagenic call: inactive; negative
Test System: AMES SALMONELLA TYPHIMURIUM, Strain/Indicator: TA100, Metabolic Activation: HAMSTER, LIVER, S-9, AROCLOR 1254, Method: STANDARD PLATE
  mutagenic call: inactive; negative
[5]
  mutagenic call: inactive; negative
Test System: AMES SALMONELLA TYPHIMURIUM, Strain/Indicator: TA100, Metabolic Activation: NONE, Method: STANDARD PLATE
  mutagenic call: inactive; negative
[6]
  mutagenic call: inactive; negative
Test System: AMES SALMONELLA TYPHIMURIUM, Strain/Indicator: TA100, Metabolic Activation: RAT, LIVER, S-9, AROCLOR 1254, Method: STANDARD PLATE
  mutagenic call: inactive; negative
[7]
  mutagenic call: inactive; negative
Test System: AMES SALMONELLA TYPHIMURIUM, Strain/Indicator: TA1535, Metabolic Activation: HAMSTER, LIVER, S-9, AROCLOR 1254, Method: STANDARD PLATE
  mutagenic call: inactive; negative
[8]
  mutagenic call: inactive; negative
Test System: AMES SALMONELLA TYPHIMURIUM, Strain/Indicator: TA1535, Metabolic Activation: NONE, Method: STANDARD PLATE
  mutagenic call: inactive; negative
[9]
  mutagenic call: inactive; negative
Test System: AMES SALMONELLA TYPHIMURIUM, Strain/Indicator: TA1535, Metabolic Activation: RAT, LIVER, S-9, AROCLOR 1254, Method: STANDARD PLATE
  mutagenic call: inactive; negative
Test System: AMES SALMONELLA TYPHIMURIUM, Strain/Indicator: TA1537, Metabolic Activation: HAMSTER, LIVER, S-9, AROCLOR 1254 (10%), Method: PREINCUBATION
  mutagenic call: inactive; negative
Test System: AMES SALMONELLA TYPHIMURIUM, Strain/Indicator: TA1537, Metabolic Activation: HAMSTER, LIVER, S-9, AROCLOR 1254, Method: STANDARD PLATE
  mutagenic call: inactive; negative
Test System: AMES SALMONELLA TYPHIMURIUM, Strain/Indicator: TA1537, Metabolic Activation: NONE, Method: PREINCUBATION
  mutagenic call: inactive; negative
Test System: AMES SALMONELLA TYPHIMURIUM, Strain/Indicator: TA1537, Metabolic Activation: NONE, Method: STANDARD PLATE
  mutagenic call: inactive; negative
Test System: AMES SALMONELLA TYPHIMURIUM, Strain/Indicator: TA1537, Metabolic Activation: RAT, LIVER, S-9, AROCLOR 1254 (10%), Method: PREINCUBATION
  mutagenic call: inactive; negative
Test System: AMES SALMONELLA TYPHIMURIUM, Strain/Indicator: TA1537, Metabolic Activation: RAT, LIVER, S-9, AROCLOR 1254, Method: STANDARD PLATE
  mutagenic call: inactive; negative
Test System: AMES SALMONELLA TYPHIMURIUM, Strain/Indicator: TA1538, Metabolic Activation: HAMSTER, LIVER, S-9, AROCLOR 1254, Method: STANDARD PLATE
  mutagenic call: inactive; negative
Test System: AMES SALMONELLA TYPHIMURIUM, Strain/Indicator: TA1538, Metabolic Activation: NONE, Method: STANDARD PLATE
  mutagenic call: inactive; negative
Test System: AMES SALMONELLA TYPHIMURIUM, Strain/Indicator: TA1538, Metabolic Activation: RAT, LIVER, S-9, AROCLOR 1254, Method: STANDARD PLATE
  mutagenic call: inactive; negative
Test System: MOUSE LYMPHOMA, Strain/Indicator: L5178Y (TK+/TK-), Metabolic Activation: NONE, Method: SUSPENSION/PLATE
  mutagenic call: active; positive. reevaluation of results: positive
Test System: MOUSE LYMPHOMA, Strain/Indicator: L5178Y (TK+/TK-), Metabolic Activation: RAT, LIVER, S-9, AROCLOR 1254, Method: SUSPENSION/PLATE
  mutagenic call: inactive; negative. reevaluation of results: negative
Test System: Mouse lymphoma, Strain/Indicator: L5178Y (tk+/tk-), Metabolic Activation: None, Method: Suspension/plate
  mutagenic call: active; positive
Test System: Mouse lymphoma, Strain/Indicator: L5178Y (tk+/tk-), Metabolic Activation: Rat, Liver, S-9, Aroclor 1254, Method: Suspension/plate
  mutagenic call: inactive; negative

## Cc1c2ccccc2cc2c3c(ccc12)[C@@H](O)[C@H](O)C=C3
Test System: CHINESE HAMSTER V-79, Strain/Indicator: V-79/8-AZAGUANINE, Metabolic Activation: NONE, Method: STANDARD PLATE
  mutagenic call: active; positive
